Experimental data published in PMC12523147, “Thyroid hormone receptor beta signaling is a targetable driver of prostate cancer growth” (Molecular Cancer, 2025).

Biological target: T1, thyroid hormone receptor β (TRβ) (Homo sapiens, UniProt P10828)
T1 construct: gene THRB
Assay: biochemical

T1 sequence (P10828 whole entry): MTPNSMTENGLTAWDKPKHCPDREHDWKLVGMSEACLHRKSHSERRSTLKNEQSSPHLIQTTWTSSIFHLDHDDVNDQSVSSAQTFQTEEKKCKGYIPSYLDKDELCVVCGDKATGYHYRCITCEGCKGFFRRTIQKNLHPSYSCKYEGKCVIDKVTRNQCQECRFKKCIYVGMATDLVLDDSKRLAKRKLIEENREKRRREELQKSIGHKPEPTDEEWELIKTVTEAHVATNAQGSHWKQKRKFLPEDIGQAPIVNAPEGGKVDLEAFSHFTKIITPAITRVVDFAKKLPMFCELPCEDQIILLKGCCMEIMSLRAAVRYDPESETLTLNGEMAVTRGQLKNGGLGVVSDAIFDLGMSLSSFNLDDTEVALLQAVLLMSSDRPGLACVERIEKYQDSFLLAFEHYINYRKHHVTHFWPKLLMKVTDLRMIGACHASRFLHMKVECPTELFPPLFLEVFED

SMILES: Cc1cc(OCC(=O)O)cc(C)c1Cc1cc(C#Cc2ccc([N+](=O)[O-])cc2)c(O)c(C(C)C)c1 [NH-3]
- Ki: 1.31 nM
